As a reminder, the pKa is the negative logarithm of the acid dissociation constant. A high value points to a group that holds its proton tightly. As usually defined, the ILS is how much longer treated animals lived than controls. A lower ILS goes with little gain in survival.

Structures are written as SMILES. “And” between values parts separate entries of the source, which are not always exact repeats. Identical values can stand only once.

The values below come from ChEMBL document CHEMBL1122588 (J Med Chem, 1984).

One data set can be described thus: physchem. As to conditions: Intestine.
In data set [1] the test system is P388. Nature of the data set: animal or person. As to conditions: Mus musculus.
Description: In vivo antitumor activity in mice bearing P388 leukemia cells at an optimal dose of 30 mg/kg given on days 1,5,9
For a further data set, the system named is L1210. As to the kind of experiment: cells. As to conditions: Mus musculus, L1210, 72 h, read-out: ID50.
In data set [2] the test system is P388. Nature of the data set: animal or person. As to conditions: Mus musculus. This is another data set of the same source.
Description: In vivo antitumor activity in mice bearing P388 leukemia cells at an optimal dose of 100 mg/kg given on days 1,5,9.
The test system of data set [3] is P388. Nature of the data set: animal or person. As to conditions: Mus musculus. This is another data set of the same source.
Description: In vivo antitumor activity in mice bearing P388 leukemia cells at an optimal dose of 20 mg/kg given on days 1,5,9
The test system of data set [4] is P388. Nature of the data set: animal or person. As to conditions: Mus musculus. The source holds these as a separate data set.
Description: In vivo antitumor activity in mice bearing P388 leukemia cells at an optimal dose of 50 mg/kg given on days 1,5,9
Data set [5] has as its system P388. As to the kind of experiment: animal or person. As to conditions: Mus musculus. The source holds these as a separate data set.
Description: In vivo antitumor activity in mice bearing P388 leukemia cells at an optimal dose of 20 mg/kg given on days 1,5,9.
Data set [6] has as its system P388. As to the kind of experiment: animal or person. As to conditions: Mus musculus. The source holds these as a separate data set.
Description: In vivo antitumor activity in mice bearing P388 leukemia cells at an optimal dose of 45 mg/kg given on days 1,5,9
Data set [7] concerns P388. Nature of the data set: animal or person. As to conditions: Mus musculus. This is another data set of the same source.
Description: In vivo antitumor activity in mice bearing P388 leukemia cells at an optimal dose of 45 mg/kg given on days 1,5,9.
Data set [8] has as its system P388. Nature of the data set: animal or person. As to conditions: Mus musculus. This is another data set of the same source.
Description: In vivo antitumor activity in mice bearing P388 leukemia cells at an optimal dose of 30 mg/kg given on days 1,5,9.
For data set [9], the system named is P388. Nature of the data set: animal or person. As to conditions: Mus musculus. This is another data set of the same source.
Description: In vivo antitumor activity in mice bearing P388 leukemia cells at an optimal dose of 13.3 mg/kg given on days 1,5,9.
In data set [10] the test system is P388. Nature of the data set: animal or person. As to conditions: Mus musculus. The source holds these as a separate data set.
Description: In vivo antitumor activity in mice bearing P388 leukemia cells at an optimal dose of 65 mg/kg given on days 1,5,9.
Data set [11] has as its system P388. Nature of the data set: animal or person. As to conditions: Mus musculus. This is another data set of the same source.
Description: In vivo antitumor activity in mice bearing P388 leukemia cells at an optimal dose of 100 mg/kg given on days 1,5,9
The test system of data set [12] is P388. As to the kind of experiment: animal or person. As to conditions: Mus musculus. This is another data set of the same source.
Description: In vivo antitumor activity in mice bearing P388 leukemia cells at an optimal dose of 300 mg/kg given on days 1,5,9.
The test system of data set [13] is P388. As to the kind of experiment: animal or person. As to conditions: Mus musculus. This is another data set of the same source.
Description: In vivo antitumor activity in mice bearing P388 leukemia cells at an optimal dose of 65 mg/kg given on days 1,5,9

Description for L1210: In vitro concentration required to reduce the murine L1210 leukemia cells in cultures to 50% after a period of 72 hr.
Description for physchem: Compound was evaluated for its rate of absorption from the intestine and pKa value was determined, lower value indicate high absorption from gastrointestinal tract.

On to `COc1cc(NS(C)(=O)=O)ccc1Nc1c2cccc(C)c2nc2c(OC)cccc12`, for which the Log K in the data set on Nucleic Acid is 6.21 and 6.19. This compound also gave a pKa in “physchem” of 6.9. Also, the ILS at 30 mg/kg in the data set on P388 [1] amounted to 109%. The IC50 with L1210 stood at 30 nM. The compound further registered an ILS at 100 mg/kg with P388 [2] of 69%.
The compound `CNC(=O)c1cccc2c(Nc3ccc(NS(C)(=O)=O)cc3OC)c3cccc(C)c3nc12` [ASULACRINE] had an ILS at 20 mg/kg in the data set with P388 [3] of 200%. Moreover, the ILS at 50 mg/kg in the data set with P388 [4] turned out to be 164%. Further, the pKa in “physchem” came to 6.4.
`CNC(=O)c1cccc2c(Nc3ccc(NS(C)(=O)=O)cc3OC)c3cccc(OC)c3nc12`: in the data set with Nucleic Acid, the Log K is 6.24 and 6.65. The same compound came in with a pKa in “physchem” of 6.55. Further, the ILS at 20 mg/kg in the data set on P388 [5] is 139%. Moreover, in the data set on L1210, the IC50 was 17 nM. The compound also had an ILS at 100 mg/kg in the data set with P388 [2] of 34%.
On to `COc1cc(NS(C)(=O)=O)ccc1Nc1c2cccc(OC)c2nc2c(OC)cccc12`, for which the Log K in the data set with Nucleic Acid was 6.32 and 6.4. This compound returned an increase in life span (ILS) at 45 mg/kg with P388 [6] of 99%. The IC50 in the data set with L1210 amounted to 65 nM. In the data set with P388 [2], the ILS at 100 mg/kg worked out at 48%.
Take `COc1cc(NS(C)(=O)=O)ccc1Nc1c2cccc(C)c2nc2c(C)cccc12`: the Log K with Nucleic Acid is 6.14 and 6.46. In the data set on P388 [7], this compound had an ILS at 45 mg/kg of 135%. The IC50 in the data set with L1210 amounted to 110 nM. Moreover, the increase in lifespan (ILS) at 100 mg/kg with P388 [2] was 86%.
For the compound `COc1cc(NS(C)(=O)=O)ccc1Nc1c2ccccc2nc2c(C(N)=O)cccc12`, the IC50 in the data set with L1210 stood at 270 nM. This compound also yielded an increase in life span (ILS) at 100 mg/kg in the data set on P388 [2] of 11%. For the same compound, in the data set on P388 [8], the increase in life span (ILS) at 30 mg/kg stood at 113%.
Turning to `COc1cc(NS(C)(=O)=O)ccc1Nc1c2ccccc2nc2ccccc12` [AMSACRINE], the Log K in the data set on Nucleic Acid was 5.57 and 5.65. The compound further had an ILS at 13.3 mg/kg in the data set with P388 [9] of 78%. In the data set on P388 [10], this compound had an ILS at 65 mg/kg of 63%.
As for `CNC(=O)c1cccc2c(Nc3ccc(NS(C)(=O)=O)cc3OC)c3ccccc3nc12`, the IC50 in the data set on L1210 came out at 270 nM. This compound also yielded an ILS at 100 mg/kg in the data set on P388 [11] of 128%. Moreover, in the data set with P388 [12], the ILS at 300 mg/kg is 127%.
`COc1cc(NS(C)(=O)=O)ccc1Nc1c2ccccc2nc2c(OC)cccc12`: the Log K in the data set on Nucleic Acid is 5.94 and 6. Moreover, the ILS at 45 mg/kg in the data set with P388 [7] amounted to 23%. The same compound returned an ILS at 30 mg/kg in the data set with P388 [1] of 139%. In the data set with L1210, the IC50 is 40 nM.
Take `COc1cc(NS(C)(=O)=O)ccc1Nc1c2cccc(C)c2nc2c(C(N)=O)cccc12`: the Log K in the data set on Nucleic Acid was 6.62 and 6.92. The compound further came in with an ILS at 20 mg/kg in the data set with P388 [3] of 113%. Besides, the pKa in the data set “physchem” was determined as 6.43. Moreover, the IC50 with L1210 stood at 47 nM. In addition, the ILS at 100 mg/kg with P388 [2] was 25%.
Take `COc1cc(NS(C)(=O)=O)ccc1Nc1c2ccccc2nc2c(C)cccc12`: the Log K in the data set on Nucleic Acid is 6.03 and 5.96. In the data set with P388 [3], this compound returned an ILS at 20 mg/kg of 143%. In the data set on P388 [13], the ILS at 65 mg/kg came out at 47%. Also, the IC50 in the data set with L1210 came to 30 nM.
